Reference: patent US5015659A, “Thienylacetic acid derivatives, process for the preparation thereof, the use thereof, and pharmaceuticals containing these and the preparation thereof” (Cassella Aktiengesellschaft, priority 1989, dated 1991)
Structures can show the parent of a compound that is named as a salt.

How the values were obtained:
[1] = test system: Ischaemia-induced amnesia in the Mongolian gerbil; assay: Ischaemia-induced amnesia, passive-avoidance learning after brief bilateral cerebral ischaemia; format: in vivo; settings: for Ischaemia-induced learning impairment, % reversal of learning impairment: immediately after the end of ischaemia; for ED50: Meriones unguiculatus, ip, i.p. immediately after the end of ischaemia (3-5 min), read-out: Dose which elicits a half-maximum (about 50%) antagonism of the learning impairment
Experimental: Brief bilateral cerebral ischaemia (3-5 min) in the gerbil leads to a prolonged learning impairment in passive-avoidance learning. The learning impairment can be antagonized if the animals are treated intraperitoneally with the compounds of the general formula I immediately after the end of ischaemia. The table which follows indicates the dosages which elicit a half-maximum (about 50%) antagonism of the learning impairment. The compounds according to the invention show a pronounced superiority to the compounds of the state of the art.

[2] = test system: Scopolamine-induced amnesia in the mouse; assay: Scopolamine-induced amnesia, passive-avoidance learning test; format: in vivo; settings: scopolamine 3 mg/kg i.p.; for Scopolamine amnesia, % reversal of amnesia: 30 mg/kg oral pretreatment
Experimental: 1) Scopolamine-induced amnesia in the mouse
Injection of a scopolamine dose of 3 mg/kg i.p. leads to an amnesia in a passive-avoidance learning test.

glycine receptor = assay: Receptor-binding studies in vitro, rat cortex synaptosomes; settings: for Kd: read-out: Binding to glycine receptors in the brain, Kd

In the case of `COc1ccc(C(=O)N2CCCC2=O)cc1` [Aniracetam, reference compound], the “Ischaemia-induced learning impairment, % reversal of learning impairment” value ([1]; 30.00 mg/kg ip) is reported as 45% and the ED50 [1] is reported as 30 mg/kg.
For `NC(=O)CNC(C(=O)O)c1cccs1` (stereo not shown) [Example 5, 2-Thienyl-N-aminocarbonylmethylaminoacetic acid], the “Ischaemia-induced learning impairment, % reversal of learning impairment” value ([1]; 1.00 mg/kg ip) was 51%, the ED50 [1] was 1 mg/kg and the “Scopolamine amnesia, % reversal of amnesia” value [2] was 56%.
For `NC(=O)C(NCC(=O)O)c1cccs1` (stereo not shown) [Example 8, 2-Thienyl-N-hydroxycarbonylmethylaminoacetamide hydrochloride], the “Ischaemia-induced learning impairment, % reversal of learning impairment” value ([1]; 0.03 mg/kg ip) was 58%, the ED50 [1] was 0.03 mg/kg and the “Scopolamine amnesia, % reversal of amnesia” value [2] was 71%.
In the case of `Cl.NCC(=O)NC(C(=O)O)c1cccs1` (stereo not shown) [Example 9, 2-Thienyl-N-aminoacetylaminoacetic acid hydrochloride], the “Ischaemia-induced learning impairment, % reversal of learning impairment” value ([1]; 0.10 mg/kg ip) is reported as 54%, the ED50 [1] is reported as 0.1 mg/kg and the Kd (glycine receptor) is reported as 1800 nM.
In the case of `NC(C(=O)NCC(=O)O)c1cccs1` (stereo not shown) [Example 11, N-(2-Thienylaminoacetyl)glycine], the “Ischaemia-induced learning impairment, % reversal of learning impairment” value ([1]; 1.00 mg/kg ip) is reported as 54%, the ED50 [1] is reported as 1 mg/kg and the Kd (glycine receptor) is reported as 1800 nM.
In the case of `NC(=O)CN1CC(O)CC1=O` (stereo not shown) [Oxiracetam, reference compound], the “Ischaemia-induced learning impairment, % reversal of learning impairment” value ([1]; 100.00 mg/kg ip) is reported as 46% and the ED50 [1] is reported as 100 mg/kg.
`NC(=O)CN1CCCC1=O` [Piracetam, reference compound] was tested, and the “Scopolamine amnesia, % reversal of amnesia” value [2] was 18%, the “antagonism of scopolamine-induced amnesia (in words)” value ([2]; oral pretreatment) was “only marginal activity” and the “Binding to glycine receptors in the brain (in words)” value (glycine receptor) was “No specific binding”.
